Test results: ChEMBL document CHEMBL1201862, “PubChem BioAssay data set” (2004)
Active and inactive are the calls of the source.

What was measured:
[1] = target: T1, Aryl hydrocarbon receptor (Homo sapiens, UniProt P35869); details: Potency;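 also: confirmatory quantitative high-throughput screen measuring activation of the AhR signaling pathway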
T1 sequence (P35869 whole entry): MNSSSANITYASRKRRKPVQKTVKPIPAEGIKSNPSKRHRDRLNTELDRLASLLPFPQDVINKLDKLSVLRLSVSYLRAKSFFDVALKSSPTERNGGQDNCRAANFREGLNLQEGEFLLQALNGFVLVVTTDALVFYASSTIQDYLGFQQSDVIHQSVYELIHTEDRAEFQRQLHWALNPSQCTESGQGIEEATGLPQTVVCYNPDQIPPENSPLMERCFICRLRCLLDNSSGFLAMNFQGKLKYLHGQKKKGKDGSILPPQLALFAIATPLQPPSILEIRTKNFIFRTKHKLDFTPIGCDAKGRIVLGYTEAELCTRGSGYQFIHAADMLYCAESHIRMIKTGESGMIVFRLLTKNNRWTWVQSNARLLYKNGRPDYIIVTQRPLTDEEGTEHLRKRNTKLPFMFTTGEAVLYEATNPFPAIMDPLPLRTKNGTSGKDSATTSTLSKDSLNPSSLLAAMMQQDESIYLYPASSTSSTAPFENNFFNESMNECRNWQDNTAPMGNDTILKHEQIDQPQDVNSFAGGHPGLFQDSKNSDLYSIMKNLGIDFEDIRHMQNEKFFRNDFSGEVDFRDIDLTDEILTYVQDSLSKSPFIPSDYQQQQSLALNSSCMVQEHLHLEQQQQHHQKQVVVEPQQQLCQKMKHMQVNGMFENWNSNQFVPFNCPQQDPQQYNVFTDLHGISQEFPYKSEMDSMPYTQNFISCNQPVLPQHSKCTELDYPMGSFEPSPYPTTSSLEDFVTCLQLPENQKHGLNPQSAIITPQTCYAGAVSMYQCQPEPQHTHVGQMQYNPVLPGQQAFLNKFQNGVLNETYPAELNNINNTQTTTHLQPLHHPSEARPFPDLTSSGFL

Cytochrome P450 3A4 = Cytochrome P450 3A4 (Homo sapiens, UniProt P08684); details: Potency;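 also: confirmatory qHTS run detecting inhibitors and substrates of CYP3A4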
Chain of Cytochrome P450 3A4 (P08684 whole entry): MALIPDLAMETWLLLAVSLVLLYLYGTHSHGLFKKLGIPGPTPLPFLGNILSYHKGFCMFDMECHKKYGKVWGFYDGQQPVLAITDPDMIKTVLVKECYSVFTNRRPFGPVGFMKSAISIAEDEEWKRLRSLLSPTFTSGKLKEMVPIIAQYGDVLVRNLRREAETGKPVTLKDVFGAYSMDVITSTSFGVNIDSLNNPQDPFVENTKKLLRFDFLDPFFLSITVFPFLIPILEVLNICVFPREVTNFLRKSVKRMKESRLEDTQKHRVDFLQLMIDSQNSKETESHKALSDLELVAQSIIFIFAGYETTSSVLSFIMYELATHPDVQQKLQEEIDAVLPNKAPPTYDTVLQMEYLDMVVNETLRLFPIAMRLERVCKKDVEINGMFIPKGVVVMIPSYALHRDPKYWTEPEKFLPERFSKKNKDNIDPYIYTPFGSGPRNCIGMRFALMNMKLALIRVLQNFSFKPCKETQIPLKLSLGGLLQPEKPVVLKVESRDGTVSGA

[2] = target: T2, Methionyl-tRNA synthetase, putative (Trypanosoma brucei brucei, UniProt Q38C91); assay type: functional, Trypanosoma brucei brucei strain 927/4 GUTat10.1
T2 sequence (Q38C91 whole entry): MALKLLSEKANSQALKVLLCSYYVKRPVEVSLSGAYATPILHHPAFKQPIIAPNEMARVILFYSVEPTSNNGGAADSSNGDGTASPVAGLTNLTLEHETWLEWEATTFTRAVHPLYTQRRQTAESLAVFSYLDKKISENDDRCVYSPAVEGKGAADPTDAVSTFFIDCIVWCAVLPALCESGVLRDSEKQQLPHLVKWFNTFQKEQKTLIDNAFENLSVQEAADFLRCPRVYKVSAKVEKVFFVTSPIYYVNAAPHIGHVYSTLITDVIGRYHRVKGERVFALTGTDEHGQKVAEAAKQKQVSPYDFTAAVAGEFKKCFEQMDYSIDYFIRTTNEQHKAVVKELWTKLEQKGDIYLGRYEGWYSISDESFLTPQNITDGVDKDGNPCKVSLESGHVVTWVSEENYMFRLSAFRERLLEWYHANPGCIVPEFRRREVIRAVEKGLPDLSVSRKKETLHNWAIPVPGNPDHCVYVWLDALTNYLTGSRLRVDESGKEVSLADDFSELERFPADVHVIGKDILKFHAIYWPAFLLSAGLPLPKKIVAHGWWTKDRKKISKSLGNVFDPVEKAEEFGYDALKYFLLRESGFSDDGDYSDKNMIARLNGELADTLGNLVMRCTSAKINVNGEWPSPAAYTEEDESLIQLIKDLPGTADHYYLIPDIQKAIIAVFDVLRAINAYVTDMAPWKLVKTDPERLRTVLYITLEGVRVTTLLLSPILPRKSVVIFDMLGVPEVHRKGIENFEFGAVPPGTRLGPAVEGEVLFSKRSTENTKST

[3] = target: T2, Methionyl-tRNA synthetase, putative; assay type: functional, Trypanosoma brucei brucei strain 927/4 GUTat10.1; remark: listed apart in the source
[4] = Counterscreen for inhibitors of Trypanosoma brucei methionyl tRNA synthetase (MetRS): Luminescence-based cell-based high throughput dose response assay to identify compounds that are cytotoxic to Jurkat human T lymphocyte cells.; assay type: functional
[5] = target: T3, Oxysterols receptor LXR-beta (Homo sapiens, UniProt P55055); assay type: functional, cell-based;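 also: Cell-based luminescence dose-response assay of agonist activity at LXR, run as a confirmatory counterscreen to a daf-12 agonist screen; HEK293 cells with Gal4-LXR fusion and GAL4-driven luciferase reporter; agonist potency from rising luciferase signal of a Gal4-LXR reporter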
T3 sequence (P55055 whole entry): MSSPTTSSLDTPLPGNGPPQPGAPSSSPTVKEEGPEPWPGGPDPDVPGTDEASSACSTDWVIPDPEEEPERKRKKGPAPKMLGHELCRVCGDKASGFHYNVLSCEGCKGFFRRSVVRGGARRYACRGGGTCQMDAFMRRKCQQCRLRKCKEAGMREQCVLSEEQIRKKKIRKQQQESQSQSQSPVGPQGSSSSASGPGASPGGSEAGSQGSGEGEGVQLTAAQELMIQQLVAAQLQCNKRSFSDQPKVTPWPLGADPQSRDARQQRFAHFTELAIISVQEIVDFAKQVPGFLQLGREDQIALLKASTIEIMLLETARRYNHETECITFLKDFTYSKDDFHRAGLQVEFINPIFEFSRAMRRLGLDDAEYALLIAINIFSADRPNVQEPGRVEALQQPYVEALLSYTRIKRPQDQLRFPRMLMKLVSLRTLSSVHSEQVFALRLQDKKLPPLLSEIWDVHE

[6] = target: T4, Apoptotic protease-activating factor 1 (Homo sapiens, UniProt O14727); assay type: functional;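 as to EC50 Mean: caspase-3 cleavage of fluorogenic Rh110 DEVD substrate downstream of apoptosome activation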
T4 sequence (O14727 whole entry): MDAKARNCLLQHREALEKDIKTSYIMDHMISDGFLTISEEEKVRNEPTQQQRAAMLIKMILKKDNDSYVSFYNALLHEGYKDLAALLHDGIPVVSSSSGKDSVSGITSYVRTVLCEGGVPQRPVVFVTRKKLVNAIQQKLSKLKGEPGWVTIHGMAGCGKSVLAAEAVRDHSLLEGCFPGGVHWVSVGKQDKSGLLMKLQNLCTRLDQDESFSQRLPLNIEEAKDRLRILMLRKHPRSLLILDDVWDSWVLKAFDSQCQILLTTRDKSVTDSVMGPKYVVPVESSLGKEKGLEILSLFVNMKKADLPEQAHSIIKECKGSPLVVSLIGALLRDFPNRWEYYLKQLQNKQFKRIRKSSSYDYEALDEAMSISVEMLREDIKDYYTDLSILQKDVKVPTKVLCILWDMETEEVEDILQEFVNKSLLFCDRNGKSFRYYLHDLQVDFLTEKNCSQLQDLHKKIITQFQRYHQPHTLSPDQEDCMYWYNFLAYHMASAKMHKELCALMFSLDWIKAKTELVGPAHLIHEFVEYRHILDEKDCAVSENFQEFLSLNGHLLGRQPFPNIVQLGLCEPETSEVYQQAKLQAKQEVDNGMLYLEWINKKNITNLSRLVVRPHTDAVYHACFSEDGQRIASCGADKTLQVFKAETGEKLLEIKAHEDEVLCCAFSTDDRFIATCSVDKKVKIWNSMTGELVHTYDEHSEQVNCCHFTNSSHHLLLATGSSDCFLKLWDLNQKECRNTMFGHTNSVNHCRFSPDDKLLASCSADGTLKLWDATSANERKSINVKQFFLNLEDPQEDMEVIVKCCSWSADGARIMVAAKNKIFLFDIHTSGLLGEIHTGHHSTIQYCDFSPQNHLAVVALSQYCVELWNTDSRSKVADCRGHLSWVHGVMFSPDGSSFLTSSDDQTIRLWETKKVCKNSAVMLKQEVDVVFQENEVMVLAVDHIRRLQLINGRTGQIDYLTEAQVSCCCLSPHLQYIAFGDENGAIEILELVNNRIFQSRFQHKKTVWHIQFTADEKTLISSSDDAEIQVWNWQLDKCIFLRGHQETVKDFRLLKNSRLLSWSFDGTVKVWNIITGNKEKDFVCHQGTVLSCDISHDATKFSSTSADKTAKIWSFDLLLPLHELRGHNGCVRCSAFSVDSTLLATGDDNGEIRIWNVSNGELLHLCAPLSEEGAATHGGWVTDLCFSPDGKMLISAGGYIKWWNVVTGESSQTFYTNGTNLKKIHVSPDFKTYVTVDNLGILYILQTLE

[7] = CRF-BP/CRF-R2 complex antagonists, dose response, cell-based, uHTS hits, 384-well (AID 651639); assay type: functional, Homo sapiens; details: read-out: IC50_Mean
[8] = target: T5, Corticotropin-releasing factor receptor 2/Corticotropin-releasing factor-binding protein (Homo sapiens, UniProt P24387+Q13324); assay: activators of CRF receptor 2 with binding protein – uHTS hits, confirmation (AID 602473); assay type: functional; details: read-out: EC50_Mean
T5 sequence (Q13324 whole entry): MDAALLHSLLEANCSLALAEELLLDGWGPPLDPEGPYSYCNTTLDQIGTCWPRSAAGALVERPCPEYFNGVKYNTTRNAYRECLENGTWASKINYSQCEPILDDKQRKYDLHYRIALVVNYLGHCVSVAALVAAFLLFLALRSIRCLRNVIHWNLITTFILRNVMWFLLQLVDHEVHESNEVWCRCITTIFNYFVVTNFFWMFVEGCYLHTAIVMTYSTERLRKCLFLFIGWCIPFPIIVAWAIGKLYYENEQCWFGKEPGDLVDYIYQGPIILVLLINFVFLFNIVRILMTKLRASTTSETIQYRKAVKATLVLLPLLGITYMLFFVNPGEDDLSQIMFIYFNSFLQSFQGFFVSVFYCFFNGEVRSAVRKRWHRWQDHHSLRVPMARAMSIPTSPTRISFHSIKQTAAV
T5 sequence (P24387 whole entry): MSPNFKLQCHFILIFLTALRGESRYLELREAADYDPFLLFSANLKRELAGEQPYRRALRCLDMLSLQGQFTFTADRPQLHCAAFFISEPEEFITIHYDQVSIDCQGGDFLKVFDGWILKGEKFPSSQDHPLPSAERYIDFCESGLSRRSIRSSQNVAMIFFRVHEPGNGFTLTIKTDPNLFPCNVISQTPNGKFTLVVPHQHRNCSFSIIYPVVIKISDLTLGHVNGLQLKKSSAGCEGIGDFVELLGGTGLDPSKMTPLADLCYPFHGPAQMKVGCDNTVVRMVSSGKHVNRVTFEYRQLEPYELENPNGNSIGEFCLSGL

[9] = target: T5, Corticotropin-releasing factor receptor 2/Corticotropin-releasing factor-binding protein; assay: Dose Response confirmation of uHTS hits for small molecule antagonists of the CRF-binding protein and CRF-R2 receptor complex.; assay type: functional; details: read-out: IC50_Mean
[10] = target: Ras and Rab interactor 1/Tyrosine-protein kinase ABL1 (Homo sapiens, UniProt P00519+Q13671); assay type: functional;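 also: biochemical TR-FRET dose-response test measuring inhibition of binding between Rin1 and Abl proteins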
Chain of Ras and Rab interactor 1/Tyrosine-protein kinase ABL1 (P00519 whole entry): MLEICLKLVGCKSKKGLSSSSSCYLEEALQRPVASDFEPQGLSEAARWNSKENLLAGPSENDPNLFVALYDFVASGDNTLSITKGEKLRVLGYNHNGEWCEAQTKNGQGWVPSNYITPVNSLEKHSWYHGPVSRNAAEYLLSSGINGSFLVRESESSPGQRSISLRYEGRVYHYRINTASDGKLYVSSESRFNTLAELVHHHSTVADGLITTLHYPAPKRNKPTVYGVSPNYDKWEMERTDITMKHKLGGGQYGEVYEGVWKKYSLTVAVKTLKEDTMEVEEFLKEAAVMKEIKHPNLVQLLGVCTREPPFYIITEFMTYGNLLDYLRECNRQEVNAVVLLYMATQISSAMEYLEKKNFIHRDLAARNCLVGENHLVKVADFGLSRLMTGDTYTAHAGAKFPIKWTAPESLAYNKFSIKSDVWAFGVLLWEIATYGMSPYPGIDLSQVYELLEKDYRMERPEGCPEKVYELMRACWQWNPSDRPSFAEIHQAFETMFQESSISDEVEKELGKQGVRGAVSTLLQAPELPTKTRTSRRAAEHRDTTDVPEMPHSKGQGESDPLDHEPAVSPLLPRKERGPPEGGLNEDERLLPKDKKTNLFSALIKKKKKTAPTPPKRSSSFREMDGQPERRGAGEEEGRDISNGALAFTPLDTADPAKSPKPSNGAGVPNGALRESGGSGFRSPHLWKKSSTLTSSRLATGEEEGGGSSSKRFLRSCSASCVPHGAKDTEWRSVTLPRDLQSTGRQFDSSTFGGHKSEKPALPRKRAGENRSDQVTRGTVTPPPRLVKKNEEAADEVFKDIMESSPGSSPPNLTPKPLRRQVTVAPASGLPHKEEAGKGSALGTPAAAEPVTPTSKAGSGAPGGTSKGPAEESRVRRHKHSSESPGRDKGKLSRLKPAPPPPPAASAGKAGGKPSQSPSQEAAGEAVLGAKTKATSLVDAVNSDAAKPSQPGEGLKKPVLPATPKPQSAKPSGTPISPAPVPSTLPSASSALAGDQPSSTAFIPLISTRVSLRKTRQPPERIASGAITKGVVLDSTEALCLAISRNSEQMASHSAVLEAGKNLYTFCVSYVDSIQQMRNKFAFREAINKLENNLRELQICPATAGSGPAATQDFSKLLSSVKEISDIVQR
Chain of Ras and Rab interactor 1/Tyrosine-protein kinase ABL1 (Q13671 whole entry): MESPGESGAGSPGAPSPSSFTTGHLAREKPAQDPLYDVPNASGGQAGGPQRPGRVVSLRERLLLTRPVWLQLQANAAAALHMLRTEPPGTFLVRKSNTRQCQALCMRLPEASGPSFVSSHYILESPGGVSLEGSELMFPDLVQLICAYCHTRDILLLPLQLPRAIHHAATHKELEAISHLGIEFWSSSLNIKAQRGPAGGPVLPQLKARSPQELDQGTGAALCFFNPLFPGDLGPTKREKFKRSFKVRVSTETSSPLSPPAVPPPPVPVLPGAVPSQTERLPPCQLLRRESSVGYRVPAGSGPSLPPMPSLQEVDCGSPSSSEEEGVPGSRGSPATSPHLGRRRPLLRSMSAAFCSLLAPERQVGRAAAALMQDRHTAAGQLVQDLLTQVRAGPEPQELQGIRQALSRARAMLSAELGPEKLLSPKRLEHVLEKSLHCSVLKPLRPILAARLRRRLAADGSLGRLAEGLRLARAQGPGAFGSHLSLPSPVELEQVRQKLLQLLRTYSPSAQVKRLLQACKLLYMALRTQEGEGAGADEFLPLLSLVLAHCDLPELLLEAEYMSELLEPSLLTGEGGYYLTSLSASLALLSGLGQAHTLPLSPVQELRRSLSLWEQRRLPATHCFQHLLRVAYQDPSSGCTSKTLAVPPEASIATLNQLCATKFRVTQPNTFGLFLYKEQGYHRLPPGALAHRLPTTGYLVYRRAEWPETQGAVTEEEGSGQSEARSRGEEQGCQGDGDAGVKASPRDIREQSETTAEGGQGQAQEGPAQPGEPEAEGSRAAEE

[11] = target: Protein disulfide-isomerase (Homo sapiens, UniProt P07237); assay: PDI inhibitors, insulin aggregation turbidity, dose response, biochemical, absorbance, cherry-picked samples (AID 602350); assay type: functional
Chain of Protein disulfide-isomerase (P07237 whole entry): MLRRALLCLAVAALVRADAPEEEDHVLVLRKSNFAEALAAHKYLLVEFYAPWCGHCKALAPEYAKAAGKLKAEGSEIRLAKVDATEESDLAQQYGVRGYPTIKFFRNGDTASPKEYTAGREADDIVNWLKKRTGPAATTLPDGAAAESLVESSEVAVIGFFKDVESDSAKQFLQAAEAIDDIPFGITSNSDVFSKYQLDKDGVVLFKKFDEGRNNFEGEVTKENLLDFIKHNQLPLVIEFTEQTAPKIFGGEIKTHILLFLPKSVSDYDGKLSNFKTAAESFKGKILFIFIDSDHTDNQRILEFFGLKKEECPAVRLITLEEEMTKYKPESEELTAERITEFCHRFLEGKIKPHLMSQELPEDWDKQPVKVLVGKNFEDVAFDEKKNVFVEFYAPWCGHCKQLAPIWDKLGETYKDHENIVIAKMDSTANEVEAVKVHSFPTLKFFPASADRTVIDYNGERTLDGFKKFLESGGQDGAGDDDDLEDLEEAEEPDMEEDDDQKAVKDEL

[12] = target: Dual specificity tyrosine-phosphorylation-regulated kinase 1A (Rattus norvegicus, UniProt Q63470); assay type: biochemical, Homo sapiens
[13] = target: T6, Low molecular weight phosphotyrosine protein phosphatase (Homo sapiens, UniProt P24666); assay type: functional; details: read-out: IC50_Mean;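 also: Dose-response confirmation assay measuring inhibition of LMPTP enzyme activity by fluorescence intensity read-out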
T6 sequence (P24666 whole entry): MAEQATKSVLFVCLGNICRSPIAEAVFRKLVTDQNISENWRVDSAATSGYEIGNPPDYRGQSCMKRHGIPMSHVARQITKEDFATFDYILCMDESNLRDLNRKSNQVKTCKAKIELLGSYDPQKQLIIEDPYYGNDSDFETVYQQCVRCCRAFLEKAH

[14] = target: Dual specificity protein phosphatase 3 (Homo sapiens, UniProt P51452); assay: VHR phosphatase inhibition, dose response, selectivity assay for STEP inhibitor project, biochemical (AID 602374); assay type: functional; details: read-out: IC50_Mean
Chain of Dual specificity protein phosphatase 3 (P51452 whole entry): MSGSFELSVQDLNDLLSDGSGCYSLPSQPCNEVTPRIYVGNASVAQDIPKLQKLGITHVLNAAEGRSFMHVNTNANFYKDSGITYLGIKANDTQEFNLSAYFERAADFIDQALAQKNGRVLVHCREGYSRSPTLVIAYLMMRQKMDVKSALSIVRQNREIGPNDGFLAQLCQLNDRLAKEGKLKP

[15] = target: Tyrosine-protein phosphatase non-receptor type 5 (Homo sapiens, UniProt P54829); assay: STEP phosphatase inhibitors, confirmation, biochemical, fluorescence intensity, uHTS hits (AID 602372); assay type: functional; details: read-out: IC50_Mean
Chain of Tyrosine-protein phosphatase non-receptor type 5 (P54829 whole entry): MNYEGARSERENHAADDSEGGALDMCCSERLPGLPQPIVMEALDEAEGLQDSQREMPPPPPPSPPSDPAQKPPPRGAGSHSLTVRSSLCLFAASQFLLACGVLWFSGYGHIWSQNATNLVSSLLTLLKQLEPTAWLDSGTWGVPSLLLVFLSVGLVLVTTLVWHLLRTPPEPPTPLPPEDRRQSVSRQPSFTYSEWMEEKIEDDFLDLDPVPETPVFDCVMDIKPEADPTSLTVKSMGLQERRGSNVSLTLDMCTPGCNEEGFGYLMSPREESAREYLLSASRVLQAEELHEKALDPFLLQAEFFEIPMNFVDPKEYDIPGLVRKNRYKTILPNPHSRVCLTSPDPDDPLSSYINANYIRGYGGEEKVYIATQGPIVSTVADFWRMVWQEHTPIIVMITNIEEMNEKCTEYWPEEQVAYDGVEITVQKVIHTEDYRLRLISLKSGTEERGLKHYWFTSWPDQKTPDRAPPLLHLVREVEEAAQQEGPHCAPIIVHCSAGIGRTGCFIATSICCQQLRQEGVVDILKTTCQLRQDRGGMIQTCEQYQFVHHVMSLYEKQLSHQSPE

[16] = target: Tyrosine-protein phosphatase non-receptor type 11 (Homo sapiens, UniProt Q06124); assay: SHP2 phosphatase inhibition, dose response, selectivity assay for STEP inhibitor project, biochemical (AID 602367); assay type: functional; details: read-out: IC50_Mean
Chain of Tyrosine-protein phosphatase non-receptor type 11 (Q06124 whole entry): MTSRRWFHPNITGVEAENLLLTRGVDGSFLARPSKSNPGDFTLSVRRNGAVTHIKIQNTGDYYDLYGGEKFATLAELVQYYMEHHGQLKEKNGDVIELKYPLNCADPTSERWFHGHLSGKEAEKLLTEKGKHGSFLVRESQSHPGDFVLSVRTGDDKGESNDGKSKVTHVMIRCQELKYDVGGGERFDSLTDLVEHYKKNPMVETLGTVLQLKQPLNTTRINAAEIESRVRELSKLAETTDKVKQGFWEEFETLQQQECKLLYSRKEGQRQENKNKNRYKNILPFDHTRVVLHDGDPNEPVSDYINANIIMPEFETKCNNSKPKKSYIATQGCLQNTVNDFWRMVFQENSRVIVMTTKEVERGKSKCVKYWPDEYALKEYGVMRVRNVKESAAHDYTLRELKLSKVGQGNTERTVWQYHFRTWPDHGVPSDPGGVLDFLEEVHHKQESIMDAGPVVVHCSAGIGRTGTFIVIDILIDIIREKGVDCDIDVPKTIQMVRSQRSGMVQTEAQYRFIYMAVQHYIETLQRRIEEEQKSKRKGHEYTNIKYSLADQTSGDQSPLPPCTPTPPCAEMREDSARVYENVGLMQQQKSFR

[17] = target: T4, Apoptotic protease-activating factor 1; assay: SAR analysis of small molecule Activators of Apaf-1 in a Fluorescent assay.; assay type: functional; details: read-out: EC50_Mean

Nc1ccc(Cl)c(Cl)c1
AC50 [1]: 56.2 µM (inconclusive)
AC50 (Cytochrome P450 3A4): 25.1 µM (inconclusive)

Cc1ccc(CNC(=O)CSc2n[nH]c3c4ccccc4nc-3n2)cc1
IC50 [2]: 119 µM (inactive)
IC50 [3]: 3.38 µM (active)
IC50 [4]: 83.3 µM (inactive)

O=[N+]([O-])c1ccccc1-c1ccc(C(=S)N2CCCC2)o1
EC50 [5]: > 67.5 µM (inactive)
EC50 (cells): > 67.5 µM (inactive)
IC50 [6]: 49.8 µM (active)

CC1CC(C)CN(C(=O)CSc2nc(Cc3cccs3)nc3ccccc23)C1 (configuration not stated)
IC50 [7]: 5.99 µM (active)
EC50 [8]: > 53 µM (inactive)
IC50 [9]: 6.34 µM (active)

CC(C)OC(=O)Cc1ccccc1
AC50 [1]: 35.5 µM (inconclusive)

CCOC(=O)Oc1ccc2c(=O)c(Oc3cccc(C)c3)coc2c1
IC50 [7]: > 20 µM (inactive)
EC50 [8]: > 53 µM (inactive)
IC50 [9]: 0.61 µM (active)

COc1ccccc1CNC(=O)CSc1nnc2ccc(-c3cccnc3)nn12
IC50 [10]: > 73.5 µM (inactive)

C[C@@H]1O[C@@H](O[C@H]2[C@H](O)[C@@H](O)[C@H](Oc3c(-c4ccc(O)cc4)oc4cc(O)cc(O)c4c3=O)O[C@@H]2CO)[C@H](O)[C@H](O)[C@H]1O
AC50 [11]: 6.92 µM (active)

C[C@@H]1O[C@@H](OC[C@H]2O[C@@H](Oc3c(-c4ccc(O)c(O)c4)oc4cc(O)cc(O)c4c3=O)[C@H](O)[C@@H](O)[C@@H]2O)[C@H](O)[C@H](O)[C@H]1O
IC50 [10]: > 73.5 µM (inactive)
AC50 [12]: 4.08 µM (active)
AC50 [11]: 7.62 µM (active)

Cc1ccc(S(=O)(=O)N2CCCCC2)cc1NC(=O)c1ccc(=O)[nH]c1
IC50 [13]: 37.1 µM (inactive)
IC50 [14]: 3.08 µM (active)
IC50 [15]: 29.6 µM (inactive)
IC50 [16]: 4.88 µM (active)

CN1CCC(Oc2ccccc2N2CC(C(=O)O)CC2=O)CC1 (configuration not stated)
EC50 [17]: > 100 µM (inactive)

O=C(Nc1ccc(F)cc1F)C1CC(c2ccc(F)cc2)=NO1 (configuration not stated)
EC50 [17]: > 100 µM (inactive)

O=c1c(O[C@@H]2O[C@H](CO)[C@@H](O)[C@H](O)[C@H]2O)c(-c2ccc(O)cc2)oc2cc(O)cc(O)c12 [ASTRAGALIN]
AC50 [11]: 19 µM (active)
